Test results from US7825256B2, “Inducible nitric oxide synthase dimerization inhibitors” (Kalypsys, Inc., priority 2004, dated 2010).

Target: T1, hiNOS (Homo sapiens, UniProt P35228)
T1 construct: expressed in transfected cells; host or cells: HEK293
Assay: DAN assay, hiNOS expressed in transiently transfected HEK293 cells
Assay type: cell-based
Details: HEK293 cells transiently transfected with hiNOS
Excerpt: The source of nitric oxide synthase (NOS) enzyme can be generated in several ways including induction of endogenous iNOS using cytokines and/or lipopolysaccharide (LPS) in various cell types known in the art. Alternatively, the gene encoding the enzyme can be cloned and the enzyme can be generated in cells via heterologous expression from a transient or stable expression plasmid with suitable features for protein expression as are known in the art. Enzymatic activity (nitric oxide production) is calcium independent for iNOS, while the constitutive NOS isoforms, nNOS and eNOS, become active with the addition of various cofactors added to cellular media or extract as are well known in the art. Enzymes specified in Table 1 were expressed in HEK293 cells transiently transfected with the indicated NOS isoform.
A major metabolic pathway for nitric oxide is to nitrate and nitrite, which are stable metabolites within tissue culture, tissue, plasma, and urine (S Moncada, A Higgs, N Eng J Med 329, 2002 (1993)).
The level of nitrate or nitrite in the specimen can be quantified by any method known in the art which provides adequate sensitivity and reproducibility. A variety of protocols have also been described for detecting and quantifying nitrite and nitrate levels in biological fluids by ion chromatography (e.g., S A Everett et al., J. Chromatogr. 706, 437 (1995); J M Monaghan et al., J. Chromatogr. 770, 143 (1997)), high-performance liquid chromatography (e.g., M Kelm et al., Cardiovasc. Res. 41, 765 (1999)), and capillary electrophoresis (M A Friedberg et al., J. Chromatogr. 781, 491 (1997)). For example, 2,3-diaminonaphthalene reacts with the nitrosonium cation that forms spontaneously from NO to form the fluorescent product […]. Using 2,3-diaminonaphthalene (“DAN”), researchers have developed a rapid, quantitative fluorometric assay that can detect from 10 nM to 10 μM nitrite and is compatible with a multi-well microplate format. […] DAN reacts with nitrite ion and gives fluorescent […] (M C Carré et al., Analysis 27, 835-838 (1999)). Table 1 provides the test results of various compounds of the subject invention using the DAN assay.
A specimen can be processed prior to determination of nitrate or nitrite as required by the quantification method, or in order to improve the results, or for the convenience of the investigator. For example, processing can involve centrifuging, filtering, or homogenizing the sample. If the sample is whole blood, the blood can be centrifuged to remove cells and the nitrate or nitrite assay performed on the plasma or serum fraction. If the sample is tissue, the tissue can be dispersed or homogenized by any method known in the art prior to determination of nitrate or nitrite. It may be preferable to remove cells and other debris by centrifugation or another method and to determine the nitrate or nitrite level using only the fluid portion of the sample, or the extracellular fluid fraction of the sample. The sample can also be preserved for later determination, for example by freezing of urine or plasma samples. When appropriate, additives may be introduced into the specimen to preserve or improve its characteristics for use in the nitrate or nitrite assay.
The “level” of nitrate, nitrite, or other NO-related product usually refers to the concentration (in moles per liter, micromoles per liter, or other suitable units) of nitrate or nitrite in the specimen, or in the fluid portion of the specimen. However, other units of measure can also be used to express the level of nitrate or nitrite. For example, an absolute amount (in micrograms, milligrams, nanomoles, moles, or other suitable units) can be used, particularly if the amount refers back to a constant amount (e.g., grams, kilograms, milliliters, liters, or other suitable units) of the specimens under consideration. A number of commercially available kits can be used.

| EC50 [nM] | Compound |
| --- | --- |
| < 1000 | CN(C)C(=O)CN(CCCNCc1ccc2c(c1)OCO2)c1nc(-n2ccnc2)ns1 [Example 57, 2-[{3-[(Benzo[1,3]dioxol-5-ylmethyl)-amino]-propyl}-(3-imidazol-1-yl-[1,2,4]thiadiazol-5-yl)-amino]-N,N-dimethyl-acetamide] |
| < 1000 | CCOC(=O)CN(CCCN(C)Cc1ccc2c(c1)OCO2)c1nc(-n2ccnc2)ns1 [Example 58, [[3-(Benzo[1,3]dioxol-5-ylmethyl-methyl-amino)-propyl]-(3-imidazol-1-yl-[1,2,4]thiadiazol-5-yl)-amino]-acetic acid ethyl ester] |
| < 1000 | N#CCN(CCCNCc1ccc2c(c1)OCO2)c1nc(-n2ccnc2)ns1 [Example 60, [{3-[(Benzo[1,3]dioxol-5-ylmethyl)-amino]-propyl}-(3-imidazol-1-yl-[1,2,4]thiadiazol-5-yl)-amino]-acetonitrile] |
| < 1000 | c1cn(-c2nsc(N(CCCNCc3ccc4c(c3)OCO4)Cc3nnn[nH]3)n2)cn1 [Example 61, N′-Benzo[1,3]dioxol-5-ylmethyl-N-(3-imidazol-1-yl-[1,2,4]thiadiazol-5-yl)-N-(1H-tetrazol-5-ylmethyl)-propane-1,3-diamine] |
| < 1000 | CNNC(=N)CN(CCCNCc1ccc2c(c1)OCO2)c1nc(-n2ccnc2)ns1 [Example 62, 2-[{3-[(Benzo[1,3]dioxol-5-ylmethyl)-amino]-propyl}-(3-imidazol-1-yl-[1,2,4]thiadiazol-5-yl)-amino]-acetamidine N′-methyl-hydrazide] |
| < 1000 | N=C(CN(CCCNCc1ccc2c(c1)OCO2)c1nc(-n2ccnc2)ns1)NO [Example 63, 2-[{3-[(Benzo[1,3]dioxol-5-ylmethyl)-amino]-propyl}-(3-imidazol-1-yl-[1,2,4]thiadiazol-5-yl)-amino]-N-hydroxy-acetamidine] |
| < 1000 | CC(NCCNCc1ccc2c(c1)OCO2)c1nc(-n2ccnc2)ns1 (centres unmarked) [Example 64, N-Benzo[1,3]dioxol-5-ylmethyl-N′-[1-(3-imidazol-1-yl-[1,2,4]thiadiazol-5-yl)-ethyl]-ethane-1,2-diamine] |
| < 1000 | CC(NCCOCc1ccc2c(c1)OCO2)c1nc(-n2ccnc2)ns1 (centres unmarked) [Example 65, [2-(Benzo[1,3]dioxol-5-ylmethoxy)-ethyl]-[1-(3-imidazol-1-yl-[1,2,4]thiadiazol-5-yl)-ethyl]-amine] |

Further lines, the compound ahead of its results:

| Compound | EC50 [nM] |
| --- | --- |
| CC(=O)Oc1ccc(CN(CCCN(C)c2nc(-n3ccnc3)ns2)Cc2ccc(OC(C)=O)cc2)cc1 [Example 35, Acetic acid 4-[((4-acetoxy-benzyl)-{3-[(3-imidazol-1-yl-[1,2,4]thiadiazol-5-yl)-methyl-amino]-propyl}-amino)-methyl]-phenyl ester] | < 1000 |
| CN(CCCN(Cc1ccc(O)cc1)Cc1ccc(O)cc1)c1nc(-n2ccnc2)ns1 [Example 36, N-(3-Imidazol-1-yl-[1,2,4]thiadiazol-5-yl)-N′,N′-bis-(4-hydroxy-benzyl)-N-methyl-propane-1,3-diamine] | < 1000 |
| Cc1cc(C2CCCN2CC(=O)NCc2ccc3c(c2)OCO3)nc(-n2ccnc2)n1 (centres unmarked) [Example 37, N-Benzo[1,3]dioxol-5-ylmethyl-2-[2-(2-imidazol-1-yl-6-methyl-pyrimidin-4-yl)-pyrrolidin-1-yl]-acetamide] | < 1000 |
| Cc1cc(C2CCCN2CCNCc2ccc3c(c2)OCO3)nc(-n2ccnc2)n1 (centres unmarked) [Example 39, Benzo[1,3]dioxol-5-ylmethyl-{2-[2-(2-imidazol-1-yl-6-methyl-pyrimidin-4-yl)-pyrrolidin-1-yl]-ethyl}-amine] | < 1000 |
| CNC(=O)C(CCCNCc1ccc2c(c1)OCO2)c1nc(-n2ccnc2)ns1 (centres unmarked) [Example 40, 5-[(Benzo[1,3]dioxol-5-ylmethyl)-amino]-2-(3-imidazol-1-yl-[1,2,4]thiadiazol-5-yl)-pentanoic acid methylamide] | < 1000 |
| CCOC(=O)C(NC(=O)CNCc1ccc2c(c1)OCO2)c1cc(C)nc(-n2ccnc2)n1 (centres unmarked) [Example 41, {2-[(Benzo[1,3]dioxol-5-ylmethyl)-amino]-acetylamino}-(2-imidazol-1-yl-6-methyl-pyrimidin-4-yl)-acetic acid ethyl ester] | < 1000 |
| CNC(=O)C(NC(=O)CNCc1ccc2c(c1)OCO2)c1cc(C)nc(-n2ccnc2)n1 (centres unmarked) [Example 42, 2-{2-[(Benzo[1,3]dioxol-5-ylmethyl)-amino]-acetylamino}-2-(2-imidazol-1-yl-6-methyl-pyrimidin-4-yl)-N-methyl-acetamide] | < 1000 |
| Cc1cc(C(C)NCCOCc2ccc3c(c2)OCO3)nc(-n2ccnc2)n1 (centres unmarked) [Example 43, [2-(Benzo[1,3]dioxol-5-ylmethoxy)-ethyl]-[1-(2-imidazol-1-yl-6-methyl-pyrimidin-4-yl)-ethyl]-amine] | < 1000 |
| Cc1cc(C(C)NCCNC(C)c2ccc3c(c2)OCO3)nc(-n2ccnc2)n1 (centres unmarked) [Example 44, N-(1-Benzo[1,3]dioxol-5-yl-ethyl)-N′-[1-(2-imidazol-1-yl-6-methyl-pyrimidin-4-yl)-ethyl]-ethane-1,2-diamine] | < 1000 |
| Cc1cc(C(C)NCCNCc2ccc3c(c2)OCCO3)nc(-n2ccnc2)n1 (centres unmarked) [Example 45, N-(2,3-Dihydro-benzo[1,4]dioxin-6-ylmethyl)-N′-[1-(2-imidazol-1-yl-6-methyl-pyrimidin-4-yl)-ethyl]-ethane-1,2-diamine] | < 1000 |
| CN(CC1CCN(Cc2ccc3c(c2)OCO3)C1)c1nc(-n2ccnc2)ns1 (centres unmarked) [Example 46, (1-Benzo[1,3]dioxol-5-ylmethyl-pyrrolidin-3-ylmethyl)-(3-imidazol-1-yl-[1,2,4]thiadiazol-5-yl)-methyl-amine] | < 1000 |
| CN(CCNCc1ccc2c(c1)OCO2)c1nc(-n2ccnc2)ns1 [Example 47, N′-Benzo[1,3]dioxol-5-ylmethyl-N-(3-imidazol-1-yl-[1,2,4]thiadiazol-5-yl)-N-methyl-ethane-1,2-diamine] | < 1000 |
| CN(CCCCNCc1ccc2c(c1)OCO2)c1nc(-n2ccnc2)ns1 [Example 48, N′-Benzo[1,3]dioxol-5-ylmethyl-N-(3-imidazol-1-yl-[1,2,4]thiadiazol-5-yl)-N-methyl-butane-1,4-diamine] | < 1000 |
| NCCCN(Cc1nccs1)c1nc(-n2ccnc2)ns1 [Example 52, N′-(3-Imidazol-1-yl-[1,2,4]thiadiazol-5-yl)-N′-thiazol-2-ylmethyl-propane-1,3-diamine] | < 1000 |
| CCOC(=O)CN(CCCNCc1ccc2c(c1)OCO2)c1nc(-n2ccnc2)ns1 [Example 53, [{3-[(Benzo[1,3]dioxol-5-ylmethyl)-amino]-propyl}-(3-imidazol-1-yl-[1,2,4]thiadiazol-5-yl)-amino]-acetic acid ethyl ester] | < 1000 |
| NC(=O)CN(CCCNCc1ccc2c(c1)OCO2)c1nc(-n2ccnc2)ns1 [Example 54, 2-[{3-[(Benzo[1,3]dioxol-5-ylmethyl)-amino]-propyl}-(3-imidazol-1-yl-[1,2,4]thiadiazol-5-yl)-amino]-acetamide] | < 1000 |
| O=C(O)CN(CCCNCc1ccc2c(c1)OCO2)c1nc(-n2ccnc2)ns1 [Example 55, [{3-[(Benzo[1,3]dioxol-5-ylmethyl)-amino]-propyl}-(3-imidazol-1-yl-[1,2,4]thiadiazol-5-yl)-amino]-acetic acid] | < 50000 |
| CNC(=O)CN(CCCNCc1ccc2c(c1)OCO2)c1nc(-n2ccnc2)ns1 [Example 56, 2-[{3-[(Benzo[1,3]dioxol-5-ylmethyl)-amino]-propyl}-(3-imidazol-1-yl-[1,2,4]thiadiazol-5-yl)-amino]-N-methyl-acetamide] | < 1000 |
